Test results published in the supplement of paper PMC10307832.

Experiments:
Assay in all cases: relative viability (nuclei count vs DMSO), 5 days (fraction); higher = more cells survive
EPLC-272H = test system: EPLC-272H
In short: (§1)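 Lung cancer cell lines, seeded in 1536-well plates, were treated the following day by pin tool with a single drug or with five library-drug doses (not always all listed) in √10 steps on top of a fixed anchor-drug dose. Cells were fixed and nuclei stained in one step after 5 days, and nuclei were counted. Relative viability is the nuclei count for treated wells divided by that for vehicle wells, reported as medians of duplicate plates.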

NCI-H2023 = test system: NCI-H2023
In short: as §1

SK-LU-1 = test system: SK-LU-1
In short: as §1

NCI-H2085 = test system: NCI-H2085
In short: as §1

PC-14 = test system: PC-14
In short: as §1

H3255 = test system: H3255
In short: as §1

NCI-H647 = test system: NCI-H647
In short: as §1

NCI-H1734 = test system: NCI-H1734
In short: as §1

SW 1573 = test system: SW 1573
In short: as §1

NCI-H322M = test system: NCI-H322M
In short: as §1

NCI-H661 = test system: NCI-H661
In short: as §1

NCI-H1993 = test system: NCI-H1993
In short: as §1

NCI-H2126 = test system: NCI-H2126
In short: as §1

NCI-H2347 = test system: NCI-H2347
In short: as §1

LCLC-97TM1 = test system: LCLC-97TM1
In short: as §1

NCI-H727 = test system: NCI-H727
In short: as §1

EMC-BAC-2 = test system: EMC-BAC-2
In short: as §1

NCI-H1915 = test system: NCI-H1915
In short: as §1

LXF-289 = test system: LXF-289
In short: as §1

NCI-H2009 = test system: NCI-H2009
In short: as §1

HOP-62 = test system: HOP-62
In short: as §1

O=c1cc(N2CCOCC2)oc2c(-c3cccc4c3sc3ccccc34)cccc12 + CC(=O)Nc1cccc(-n2c(=O)n(C3CC3)c(=O)c3c(Nc4ccc(I)cc4F)n(C)c(=O)c(C)c32)c1 [Trametinib] (partner 0.02 µM)
relative viability (EPLC-272H; first compound 0.01 µM): 0.301
relative viability (EPLC-272H; first compound 0.03162 µM): 0.285
relative viability (EPLC-272H; first compound 0.1 µM): 0.333
relative viability (EPLC-272H; first compound 0.3162 µM): 0.284
relative viability (EPLC-272H; first compound 1 µM): 0.279
relative viability (NCI-H2023; first compound 0.01 µM): 0.676
relative viability (NCI-H2023; first compound 0.03162 µM): 0.574
relative viability (NCI-H2023; first compound 0.1 µM): 0.624
relative viability (NCI-H2023; first compound 0.3162 µM): 0.601
relative viability (NCI-H2023; first compound 1 µM): 0.396
relative viability (SK-LU-1; first compound 0.01 µM): 0.521
relative viability (SK-LU-1; first compound 0.03162 µM): 0.453
relative viability (SK-LU-1; first compound 0.1 µM): 0.505
relative viability (SK-LU-1; first compound 0.3162 µM): 0.443
relative viability (SK-LU-1; first compound 1 µM): 0.5
relative viability (NCI-H2085; first compound 0.01 µM): 0.515
relative viability (NCI-H2085; first compound 0.03162 µM): 0.541
relative viability (NCI-H2085; first compound 0.1 µM): 0.515
relative viability (NCI-H2085; first compound 0.3162 µM): 0.577
relative viability (NCI-H2085; first compound 1 µM): 0.454
relative viability (PC-14; first compound 0.01 µM): 0.843
relative viability (PC-14; first compound 0.03162 µM): 0.744
relative viability (PC-14; first compound 0.1 µM): 0.745
relative viability (PC-14; first compound 0.3162 µM): 0.775
relative viability (PC-14; first compound 1 µM): 0.832
relative viability (H3255; first compound 0.01 µM): 0.548
relative viability (H3255; first compound 0.03162 µM): 0.691
relative viability (H3255; first compound 0.1 µM): 0.675
relative viability (H3255; first compound 0.3162 µM): 0.703
relative viability (H3255; first compound 1 µM): 0.552
relative viability (NCI-H647; first compound 0.01 µM): 0.503
relative viability (NCI-H647; first compound 0.03162 µM): 0.489
relative viability (NCI-H647; first compound 0.1 µM): 0.487
relative viability (NCI-H647; first compound 0.3162 µM): 0.449
relative viability (NCI-H647; first compound 1 µM): 0.472
relative viability (NCI-H1734; first compound 0.01 µM): 0.772
relative viability (NCI-H1734; first compound 0.03162 µM): 0.747
relative viability (NCI-H1734; first compound 0.1 µM): 0.637
relative viability (NCI-H1734; first compound 0.3162 µM): 0.69
relative viability (NCI-H1734; first compound 1 µM): 0.758
relative viability (SW 1573; first compound 0.01 µM): 0.501
relative viability (SW 1573; first compound 0.03162 µM): 0.594
relative viability (SW 1573; first compound 0.1 µM): 0.585
relative viability (SW 1573; first compound 0.3162 µM): 0.603
relative viability (SW 1573; first compound 1 µM): 0.501
relative viability (NCI-H322M; first compound 0.01 µM): 0.494
relative viability (NCI-H322M; first compound 0.03162 µM): 0.486
relative viability (NCI-H322M; first compound 0.3162 µM): 0.495
relative viability (NCI-H322M; first compound 1 µM): 0.494
relative viability (NCI-H661; first compound 0.01 µM): 0.541
relative viability (NCI-H661; first compound 0.03162 µM): 0.587
relative viability (NCI-H661; first compound 0.1 µM): 0.674
relative viability (NCI-H661; first compound 0.3162 µM): 0.581
relative viability (NCI-H661; first compound 1 µM): 0.603
relative viability (NCI-H1993; first compound 0.01 µM): 0.507
relative viability (NCI-H1993; first compound 0.03162 µM): 0.601
relative viability (NCI-H1993; first compound 0.1 µM): 0.507
relative viability (NCI-H1993; first compound 0.3162 µM): 0.407
relative viability (NCI-H1993; first compound 1 µM): 0.516
relative viability (NCI-H2126; first compound 0.01 µM): 0.543
relative viability (NCI-H2126; first compound 0.03162 µM): 0.52
relative viability (NCI-H2126; first compound 0.1 µM): 0.54
relative viability (NCI-H2126; first compound 0.3162 µM): 0.567
relative viability (NCI-H2126; first compound 1 µM): 0.569
relative viability (NCI-H2347; first compound 0.01 µM): 0.263
relative viability (NCI-H2347; first compound 0.03162 µM): 0.287
relative viability (NCI-H2347; first compound 0.1 µM): 0.269
relative viability (NCI-H2347; first compound 0.3162 µM): 0.309
relative viability (NCI-H2347; first compound 1 µM): 0.229
relative viability (LCLC-97TM1; first compound 0.01 µM): 0.197
relative viability (LCLC-97TM1; first compound 0.03162 µM): 0.161
relative viability (LCLC-97TM1; first compound 0.1 µM): 0.173
relative viability (LCLC-97TM1; first compound 0.3162 µM): 0.173
relative viability (LCLC-97TM1; first compound 1 µM): 0.193
relative viability (NCI-H727; first compound 0.01 µM): 0.38
relative viability (NCI-H727; first compound 0.03162 µM): 0.372
relative viability (NCI-H727; first compound 0.1 µM): 0.389
relative viability (NCI-H727; first compound 0.3162 µM): 0.391
relative viability (NCI-H727; first compound 1 µM): 0.37
relative viability (EMC-BAC-2; first compound 0.01 µM): 0.976
relative viability (EMC-BAC-2; first compound 0.03162 µM): 0.93
relative viability (EMC-BAC-2; first compound 0.1 µM): 0.931
relative viability (EMC-BAC-2; first compound 0.3162 µM): 0.774
relative viability (EMC-BAC-2; first compound 1 µM): 0.865
relative viability (NCI-H1915; first compound 0.01 µM): 0.32
relative viability (NCI-H1915; first compound 0.03162 µM): 0.32
relative viability (NCI-H1915; first compound 0.1 µM): 0.299
relative viability (NCI-H1915; first compound 0.3162 µM): 0.3
relative viability (NCI-H1915; first compound 1 µM): 0.3
relative viability (LXF-289; first compound 0.01 µM): 0.672
relative viability (LXF-289; first compound 0.03162 µM): 0.629
relative viability (LXF-289; first compound 0.1 µM): 0.662
relative viability (LXF-289; first compound 0.3162 µM): 0.673
relative viability (LXF-289; first compound 1 µM): 0.695
relative viability (NCI-H2009; first compound 0.01 µM): 0.315
relative viability (NCI-H2009; first compound 0.03162 µM): 0.294
relative viability (NCI-H2009; first compound 0.1 µM): 0.255
relative viability (NCI-H2009; first compound 0.3162 µM): 0.279
relative viability (NCI-H2009; first compound 1 µM): 0.212
relative viability (HOP-62; first compound 0.01 µM): 0.379
relative viability (HOP-62; first compound 0.03162 µM): 0.384
relative viability (HOP-62; first compound 0.1 µM): 0.358
relative viability (HOP-62; first compound 0.3162 µM): 0.385
relative viability (HOP-62; first compound 1 µM): 0.373
